The structures appear in SMILES notation. pIC50: −log10 of the molar value. Bounds are passed on as bounds.

In one test the target is T1, baculovirus-expressed ALK (Homo sapiens, UniProt Q9UM73).
T1 construct: host or cells: baculovirus expression system
T1 sequence (Q9UM73 19-1620): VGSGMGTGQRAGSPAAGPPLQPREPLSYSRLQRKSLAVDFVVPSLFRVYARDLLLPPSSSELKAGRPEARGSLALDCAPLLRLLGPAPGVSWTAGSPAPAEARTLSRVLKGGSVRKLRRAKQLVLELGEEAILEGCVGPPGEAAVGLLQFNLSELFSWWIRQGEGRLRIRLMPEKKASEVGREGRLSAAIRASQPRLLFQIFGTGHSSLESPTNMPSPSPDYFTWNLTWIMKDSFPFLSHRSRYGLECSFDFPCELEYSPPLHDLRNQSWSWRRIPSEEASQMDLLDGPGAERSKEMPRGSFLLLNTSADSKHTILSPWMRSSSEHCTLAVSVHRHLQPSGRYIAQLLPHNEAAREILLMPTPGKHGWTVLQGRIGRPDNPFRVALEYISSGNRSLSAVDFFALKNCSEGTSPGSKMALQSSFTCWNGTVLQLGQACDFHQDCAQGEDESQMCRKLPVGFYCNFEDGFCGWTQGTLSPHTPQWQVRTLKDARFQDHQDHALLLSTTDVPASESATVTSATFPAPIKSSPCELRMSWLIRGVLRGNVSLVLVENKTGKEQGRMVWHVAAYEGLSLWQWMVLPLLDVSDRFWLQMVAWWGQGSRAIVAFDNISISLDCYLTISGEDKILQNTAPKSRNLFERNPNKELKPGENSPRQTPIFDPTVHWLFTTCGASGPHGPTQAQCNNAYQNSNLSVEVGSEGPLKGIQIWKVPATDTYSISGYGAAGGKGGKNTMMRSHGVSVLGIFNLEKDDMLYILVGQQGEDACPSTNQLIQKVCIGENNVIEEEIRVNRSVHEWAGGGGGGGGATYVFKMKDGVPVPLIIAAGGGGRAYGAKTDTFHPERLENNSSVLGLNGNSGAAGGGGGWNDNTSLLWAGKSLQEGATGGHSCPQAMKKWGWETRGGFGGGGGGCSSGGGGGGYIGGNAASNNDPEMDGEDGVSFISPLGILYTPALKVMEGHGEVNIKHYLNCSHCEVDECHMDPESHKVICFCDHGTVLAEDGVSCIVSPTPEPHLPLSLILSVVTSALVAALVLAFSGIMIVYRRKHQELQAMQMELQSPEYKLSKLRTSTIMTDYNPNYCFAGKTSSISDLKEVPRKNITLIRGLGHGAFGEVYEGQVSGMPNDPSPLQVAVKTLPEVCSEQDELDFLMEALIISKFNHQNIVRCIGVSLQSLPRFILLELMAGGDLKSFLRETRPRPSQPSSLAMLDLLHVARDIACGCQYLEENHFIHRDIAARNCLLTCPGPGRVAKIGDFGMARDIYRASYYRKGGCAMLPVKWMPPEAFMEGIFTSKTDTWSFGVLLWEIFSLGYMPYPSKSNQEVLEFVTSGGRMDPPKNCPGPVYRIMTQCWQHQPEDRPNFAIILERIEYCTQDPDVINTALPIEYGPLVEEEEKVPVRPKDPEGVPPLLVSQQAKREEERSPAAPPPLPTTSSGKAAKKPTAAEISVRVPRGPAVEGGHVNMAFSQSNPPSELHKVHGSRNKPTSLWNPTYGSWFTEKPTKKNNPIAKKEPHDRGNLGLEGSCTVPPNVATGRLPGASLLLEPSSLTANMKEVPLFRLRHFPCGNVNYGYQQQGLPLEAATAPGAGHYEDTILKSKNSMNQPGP
Kind of test: ALK Kinase Assay (ELISA-type, time-resolved fluorescence). Type of test: biochemical. The conditions noted are these: 1 μM ATP (Km level), 30 ng/ml ALK, 37° C., 15 minutes; read-out: ALK Activity (ALK kinase inhibition, IC50 class). Here is the method: Briefly, each 96-well plate was coated with 100 μL/well of 10 μg/mL substrate (phospholipase C-γ) in Tris-buffered saline (TBS). […] The reaction was initiated by adding enzyme (30 ng/ml ALK) and was allowed to proceed at 37° C. for 15 minutes. Detection of the phosphorylated product was performed by adding 100 μl/well of Eu-N1 labeled PT66 antibody (Perkin Elmer # AD0041).
Data analysis was performed using ActivityBase (IDBS, Guilford, UK). IC50 values were calculated by plotting percent inhibition versus log10 of the concentration of compound and fitting to the nonlinear regression sigmoidal dose-response (variable slope) equation in XLFit (IDBS, Guilford, UK).
A general note: In an ELISA, binding on a coated surface is turned into a signal by an enzyme label.
Turning to `CCCNC(=O)c1ccccc1Nc1nc(Nc2ccc3c(c2)CCCC(=O)N3C)ncc1Cl` [Example 1025, 2-[5-Chloro-2-(1-methyl-2-oxo-2,3,4,5-tetrahydro-1H-benzo[b]azepin-7-ylamino)-pyrimidin-4-ylamino]-N-propyl-benzamide], the pIC50 was over 7.00. Same read-out and setting: the result for `CCCCNC(=O)c1ccccc1Nc1nc(Nc2ccc3c(c2)CCCC(=O)N3C)ncc1Cl` [Example 1030, N-Butyl-2-[5-chloro-2-(1-methyl-2-oxo-2,3,4,5-tetrahydro-1H-benzo[b]azepin-7-ylamino)-pyrimidin-4-ylamino]-benzamide] reads over 7.00.

Still in this test, the particulars now being: ALK kinase inhibition, 1 μM ATP (Km level); read-out: ALK Activity.
`CN1C(=O)CCCc2cc(Nc3ncc(Cl)c(Nc4ccccc4C(N)=O)n3)ccc21` [Example 7, 2-[5-Chloro-2-(1-methyl-2-oxo-2,3,4,5-tetrahydro-1H-benzo[b]azepin-7-ylamino)-pyrimidin-4-ylamino]-benzamide]: the pIC50 is over 7.00. Take `CNC(=O)c1ccccc1Nc1nc(Nc2ccc3c(c2)CCN(CCOC)CC3)ncc1Cl` [Example 34, 2-{5-Chloro-2-[3-(2-methoxy-ethyl)-2,3,4,5-tetrahydro-1H-benzo[d]azepin-7-ylamino]-pyrimidin-4-ylamino}-N-methyl-benzamide]: the pIC50 was over 7.00.

For the compound `CNC(=O)c1cccc(F)c1Nc1nc(Nc2ccc3c(c2)CCN(CCOC)CC3)ncc1Cl` [Example 311, 2-{5-Chloro-2-[3-(2-methoxy-ethyl)-2,3,4,5-tetrahydro-1H-benzo[d]azepin-7-ylamino]-pyrimidine-4-ylamino}-3-fluoro-N-methyl-benzamide], the pIC50 was over 7.00.

With `CNC(=O)c1cccc(Cl)c1Nc1nc(Nc2ccc3c(c2)CCN(CCOC)CC3)ncc1Cl` [Example 312, 3-Chloro-2-{5-chloro-2-[3-(2-methoxy-ethyl)-2,3,4,5-tetrahydro-1H-benzo[d]azepin-7-ylamino]-pyrimidine-4-ylamino}-N-methyl-benzamide], the pIC50 is 6.00 to 7.00. As to `CNC(=O)c1cccc(C)c1Nc1nc(Nc2ccc3c(c2)CCN(CCOC)CC3)ncc1Cl` [Example 313, 2-{5-Chloro-2-[3-(2-methoxy-ethyl)-2,3,4,5-tetrahydro-1H-benzo[d]azepin-7-ylamino]-pyrimidin-4-ylamino}-3,N-dimethyl-benzamide], the pIC50 was 6.00 to 7.00. On the same count and under the same terms, as for `CNC(=O)c1cccc(F)c1Nc1nc(Nc2ccc3c(c2)N(CCOC)C(=O)CCC3)ncc1Cl` [Example 362, 2-{5-Chloro-2-[1-(2-methoxy-ethyl)-2-oxo-2,3,4,5-tetrahydro-1H-benzo[b]azepin-8-ylamino]-pyrimidin-4-ylamino}-3-fluoro-N-methyl-benzamide], the figure is over 7.00. As for `CNC(=O)c1ccccc1Nc1nc(Nc2ccc3c(c2)C(C)(C)CCC(=O)N3)ncc1Cl` [Example 381, 2-[5-Chloro-2-(5,5-dimethyl-2-oxo-2,3,4,5-tetrahydro-1H-benzo[b]azepin-7-ylamino)-pyrimidin-4-ylamino]-N-methyl-benzamide], the pIC50 was over 7.00. Still for that read-out and setting: as for `CNC(=O)c1cccc(Cl)c1Nc1nc(Nc2ccc3c(c2)C(C)(C)CCC(=O)N3)ncc1Cl` [Example 382, 3-Chloro-2-[5-chloro-2-(5,5-dimethyl-2-oxo-2,3,4,5-tetrahydro-1H-benzo[b]azepin-7-ylamino)-pyrimidin-4-ylamino]-N-methyl-benzamide], the figure is 6.00 to 7.00; as for `CNC(=O)c1cccc(F)c1Nc1nc(Nc2ccc3c(c2)C(C)(C)CCC(=O)N3)ncc1Cl` [Example 396, 2-[5-Chloro-2-(5,5-dimethyl-2-oxo-2,3,4,5-tetrahydro-1H-benzo[b]azepin-7-ylamino)-pyrimidin-4-ylamino]-3-fluoro-N-methyl-benzamide], over 7.00. Turning to `CNC(=O)c1cccc(C)c1Nc1nc(Nc2ccc3c(c2)C(C)(C)CCC(=O)N3)ncc1Cl` [Example 399, 2-[5-Chloro-2-(5,5-dimethyl-2-oxo-2,3,4,5-tetrahydro-1H-benzo[b]azepin-7-ylamino)-pyrimidin-4-ylamino]-3,N-dimethyl-benzamide], the pIC50 is 6.00 to 7.00.

The record behind these values is US8148391B2 (Cephalon, Inc., priority 2006, dated 2012).
